According to PMC2819846 (Mutation research, 2008):

Experiments:
Format in all cases: cell-based
[1] = system: Salmonella TA98; experiment: Salmonella plate-incorporation mutagenicity assay, strain TA98, with S9 mix
[2] = system: Salmonella TA100; experiment: Salmonella plate-incorporation mutagenicity assay, strain TA100
[3] = system: Salmonella TA104; experiment: Salmonella plate-incorporation mutagenicity assay, strain TA104, with S9 mix

Work on `O[C@@H]1c2ccccc2-c2c(ccc3ccsc23)[C@H]1O` (racemic) [P[4,3-b]T 6,7-diol, (±)-trans-6,7-Dihydrophenanthro[4,3-b]thiophene 6,7-diol] yielded a Rev/plate ([1]; TA98 +S9, Test 1, 2 µg/plate, zero-dose 33/40/39) of 34 rev/plate, a Rev/plate ([1]; TA98 +S9, Test 1, 5 µg/plate, zero-dose 33/40/39) of 35 rev/plate and a Rev/plate ([1]; TA98 +S9, Test 1, 10 µg/plate, zero-dose 33/40/39) of 47 rev/plate. It also gave a Rev/plate ([1]; TA98 +S9, Test 1, 20 µg/plate, zero-dose 33/40/39) of 52 rev/plate, a Rev/plate ([1]; TA98 +S9, Test 1, 40 µg/plate, zero-dose 33/40/39) of 39 rev/plate and a Rev/plate ([1]; TA98 +S9, Test 1, 80 µg/plate, zero-dose 33/40/39) of 36 rev/plate. For the same compound, the Rev/plate ([1]; TA98 +S9, Test 2, 5 µg/plate, zero-dose 43/41/30) was 28/34, the Rev/plate ([1]; TA98 +S9, Test 2, 10 µg/plate, zero-dose 43/41/30) was 27/28 and the Rev/plate ([1]; TA98 +S9, Test 2, 20 µg/plate, zero-dose 43/41/30) was 38/27. For the same compound, the Rev/plate ([1]; TA98 +S9, Test 2, 40 µg/plate, zero-dose 43/41/30) was 33/27, the Rev/plate ([1]; TA98 +S9, Test 3, 5 µg/plate, zero-dose 49/50/50) was 50/53 and the Rev/plate ([1]; TA98 +S9, Test 3, 10 µg/plate, zero-dose 49/50/50) was 43/47. The Rev/plate ([1]; TA98 +S9, Test 3, 20 µg/plate, zero-dose 49/50/50) was 52/47, the Rev/plate ([1]; TA98 +S9, Test 3, 40 µg/plate, zero-dose 49/50/50) was 48/50 and the “Mutagenic potency, Revertants/µg ± S.E., TA98” value ([1]; plate-incorporation, +S9) was −0.2 ± 0.1 rev/µg. It also gave a Rev/plate ([2]; TA100 +S9, Test 1, 2 µg/plate, zero-dose 99/110/110) of 101 rev/plate, a Rev/plate ([2]; TA100 +S9, Test 1, 5 µg/plate, zero-dose 99/110/110) of 128 rev/plate and a Rev/plate ([2]; TA100 +S9, Test 1, 10 µg/plate, zero-dose 99/110/110) of 126 rev/plate. It also gave a Rev/plate ([2]; TA100 +S9, Test 1, 20 µg/plate, zero-dose 99/110/110) of 127 rev/plate, a Rev/plate ([2]; TA100 +S9, Test 1, 40 µg/plate, zero-dose 99/110/110) of 132 rev/plate and a Rev/plate ([2]; TA100 +S9, Test 1, 80 µg/plate, zero-dose 99/110/110) of 137 rev/plate. For the same compound, the Rev/plate ([2]; TA100 +S9, Test 2, 5 µg/plate, zero-dose 84/78/80) was 97/98, the Rev/plate ([2]; TA100 +S9, Test 2, 10 µg/plate, zero-dose 84/78/80) was 79/88 and the Rev/plate ([2]; TA100 +S9, Test 2, 20 µg/plate, zero-dose 84/78/80) was 94/113. The Rev/plate ([2]; TA100 +S9, Test 2, 40 µg/plate, zero-dose 84/78/80) was 119/81, the Rev/plate ([2]; TA100 +S9, Test 3, 5 µg/plate, zero-dose 127/118/125) was 125/135 and the Rev/plate ([2]; TA100 +S9, Test 3, 10 µg/plate, zero-dose 127/118/125) was 132/119. The Rev/plate ([2]; TA100 +S9, Test 3, 20 µg/plate, zero-dose 127/118/125) was 134/155, the Rev/plate ([2]; TA100 +S9, Test 3, 40 µg/plate, zero-dose 127/118/125) was 136/128 and the “Mutagenic potency, Revertants/µg ± S.E., TA100” value ([2]; plate-incorporation, +S9) was 0.4 ± 0.1 rev/µg. For the same compound, the Rev/plate ([3]; TA104 +S9, Test 2, 5 µg/plate, zero-dose 276/260/270) was 330/353, the Rev/plate ([3]; TA104 +S9, Test 2, 10 µg/plate, zero-dose 276/260/270) was 391/347 and the Rev/plate ([3]; TA104 +S9, Test 2, 20 µg/plate, zero-dose 276/260/270) was 348/340. For the same compound, the Rev/plate ([3]; TA104 +S9, Test 2, 40 µg/plate, zero-dose 276/260/270) was 305/354, the Rev/plate ([3]; TA104 +S9, Test 3, 5 µg/plate, zero-dose 402/395/336) was 438/407 and the Rev/plate ([3]; TA104 +S9, Test 3, 10 µg/plate, zero-dose 402/395/336) was 442/462. For the same compound, the Rev/plate ([3]; TA104 +S9, Test 3, 20 µg/plate, zero-dose 402/395/336) was 423/445, the Rev/plate ([3]; TA104 +S9, Test 3, 40 µg/plate, zero-dose 402/395/336) was 365/373 and the “Mutagenic potency, Revertants/µg ± S.E., TA104” value ([3]; plate-incorporation, +S9) was 9.2 ± 1.3 rev/µg.
`Nc1ccc2cc3ccccc3cc2c1` [2-aminoanthracene, reference compound] was tested, and the Rev/plate ([3]; TA104 +S9, Test 1, 0.1 µg/plate, zero-dose 379/400/370) was 469/478, the Rev/plate ([3]; TA104 +S9, Test 1, 0.25 µg/plate, zero-dose 379/400/370) was 650/632 and the Rev/plate ([3]; TA104 +S9, Test 1, 0.5 µg/plate, zero-dose 379/400/370) was 849/818. For the same compound, the Rev/plate ([3]; TA104 +S9, Test 1, 1 µg/plate, zero-dose 379/400/370) was 1004/998, the Rev/plate ([3]; TA104 +S9, Test 1, 2 µg/plate, zero-dose 379/400/370) was 1335/1432 and the Rev/plate ([3]; TA104 +S9, Test 2, 0.1 µg/plate, zero-dose 276/260/270) was 366/337. The Rev/plate ([3]; TA104 +S9, Test 2, 0.25 µg/plate, zero-dose 276/260/270) was 521/530, the Rev/plate ([3]; TA104 +S9, Test 2, 0.5 µg/plate, zero-dose 276/260/270) was 764/666 and the Rev/plate ([3]; TA104 +S9, Test 2, 1 µg/plate, zero-dose 276/260/270) was 983/956. The Rev/plate ([3]; TA104 +S9, Test 2, 2 µg/plate, zero-dose 276/260/270) was 1321/1392, the Rev/plate ([3]; TA104 +S9, Test 3, 0.1 µg/plate, zero-dose 402/395/336) was 444/419 and the Rev/plate ([3]; TA104 +S9, Test 3, 0.25 µg/plate, zero-dose 402/395/336) was 570/588. For the same compound, the Rev/plate ([3]; TA104 +S9, Test 3, 0.5 µg/plate, zero-dose 402/395/336) was 822/811, the Rev/plate ([3]; TA104 +S9, Test 3, 1 µg/plate, zero-dose 402/395/336) was 1079/1097 and the Rev/plate ([3]; TA104 +S9, Test 3, 2 µg/plate, zero-dose 402/395/336) was 1434/1518. The Rev/plate ([3]; TA104 +S9, Test 4, 0.1 µg/plate, zero-dose 482/455/462) was 573/564, the Rev/plate ([3]; TA104 +S9, Test 4, 0.25 µg/plate, zero-dose 482/455/462) was 699/711 and the Rev/plate ([3]; TA104 +S9, Test 4, 0.5 µg/plate, zero-dose 482/455/462) was 864/989. The Rev/plate ([3]; TA104 +S9, Test 4, 1 µg/plate, zero-dose 482/455/462) was 1185/1181.
